# In PMC8448819, “The Arabidopsis MIK2 receptor elicits immunity by sensing a conserved signature from phytocytokines and microbes” (Nature Communications, 2021):
# Several values for one entry are separate records, joined by “and”; a condition that tells them apart may be missing. Equal entries are not always repeated. Entries after “also recorded” stand apart in the source; their conditions may differ. Where two headings read alike, the source gives them in different places.
# Assays:
# [1] = test system: mik2-1 roots and leaf protoplasts; test: TAMRA-SCOOP12 binding in vivo, mik2-1 (confocal); set-up: species or system Arabidopsis thaliana; settings: mik2-1, 100 nM TAMRA-SCOOP12, 5 min
# [2] = test system: Arabidopsis WT (Col-0) seedlings; assay type: in vivo, Arabidopsis thaliana
# [3] = test system: WT roots and leaf protoplasts; test: TAMRA-SCOOP12 binding and competition in vivo, WT (confocal); set-up: species or system Arabidopsis thaliana; settings: 100 nM TAMRA-SCOOP12, 5 min
# [4] = test system: MPK3, MPK4 and MPK6 phosphorylation, WT seedlings; test: MAPK assay (α-pERK1/2 immunoblot), WT; assay type: in vivo, Arabidopsis thaliana
# Protocol: (§1) Ten-day-old seedlings grown vertically on ½MS plates were transferred to ddH2O overnight for recovery. Then, ddH2O was replaced by 100 nM peptides for the indicated time.
# [5] = test system: mik2-1 and mik2-2 mutant seedlings; assay type: in vivo, Arabidopsis thaliana; settings: individual values, one per line
# Arabidopsis WT seedlings = test: ROS assay (luminol), WT seedlings; assay type: in vivo, Arabidopsis thaliana; settings: WT seedlings
# Protocol: (§2) ROS burst was determined by a luminol-based assay. […] Then, ddH2O was replaced by 200 µL of reaction solution containing 50 µM of luminol, and 10 µg/mL of horseradish peroxidase (Sigma-Aldrich) supplemented with or without 100 nM or 1 μM peptide. Luminescence was measured immediately after adding the solution with a luminometer (Glomax 20/20n, Promega) with a one-second interval for 15 min. The total values of ROS production were indicated as means of the relative light units (RLUs).
# p35S::Aequorin seedlings = assay type: in vivo, Arabidopsis thaliana
# [6] = test system: MPK3, MPK4 and MPK6 phosphorylation, bak1-4 and bak1-5/serk4 seedlings; test: MAPK assay (α-pERK1/2 immunoblot), coreceptor mutants; assay type: in vivo, Arabidopsis thaliana
# Protocol: as §1
# [7] = test system: WRKY30, WRKY33 and CYP81F2 expression, mik2 seedlings; test: RT-qPCR of defense genes, mik2 mutants; assay type: in vivo, Arabidopsis thaliana
# [8] = test system: Arabidopsis WT seedling roots; test: Microscopy of root browning and root meristems, WT; assay type: in vivo, Arabidopsis thaliana
# [9] = test system: WRKY30, WRKY33 and CYP81F2 expression, WT seedlings; test: RT-qPCR of defense genes, WT; assay type: in vivo, Arabidopsis thaliana
# [10] = test system: MYB51 promoter, pMYB51::GUS seedling roots; test: Histochemical GUS staining, pMYB51::GUS; assay type: in vivo, Arabidopsis thaliana; settings: pMYB51::GUS seedlings, 1 µM, 3 h
# Excerpt: Stained samples were fixed with a 3:1 ethanol:acetic acid solution overnight and cleared by lactic acid and photographed with the Olympus SZX10 stereoscopic microscope equipped with DP27 camera.
# MIK2^ECD-BAK1^ECD = test: Gel filtration of MIK2^ECD and BAK1^ECD; assay type: biochemical, Arabidopsis thaliana; settings: 0.1 mg peptide, 10 mM Bis-Tris pH 6.0, 100 mM NaCl, on ice 1 h
# Protocol: The ECD domains of MIK2 (MIK2^ECD) and BAK1 (BAK1^ECD) fused with a 6 × HIS tag at the C-terminus were expressed using the Bac-to-Bac baculovirus expression system (Invitrogen) in High Five cells at 22 °C[25]. One liter of cells (1.8 × 10^6 cells per mL cultured in the medium from Expression Systems) was infected with 20 mL baculovirus and the media were harvested after 48 h of infection. The secreted MIK2^ECD-6 × HIS and BAK1^ECD-6 × HIS proteins were purified using Ni-NTA (Novagen) and size-exclusion chromatography (Hiload 200, GE Healthcare) in buffer containing 10 mM Bis-Tris pH 6.0 and 100 mM NaCl.
# The purified MIK2^ECD proteins (0.5 mg for each) and BAK1^ECD proteins (0.2 mg for each) were incubated together with SCOOP12 or SCOOP12^SS/AA (0.1 mg for each) in a buffer containing 10 mM Bis-Tris, pH 6.0, 100 mM NaCl on ice for 1 h. Then, each of the mixtures was separated by gel filtration (Hiload 200, GE Healthcare) with a flow rate of 0.8 mL/min and an injection volume of […] at 4 °C, and the peak fractions were separated on SDS-PAGE followed by Coomassie blue (CBB) staining.
# MIK2^ECD [11] = biological target: T1, MIK2^ECD (Arabidopsis thaliana, UniProt Q8VZG8); test: Isothermal titration calorimetry (ITC); assay type: binding; settings: 25 °C, pH 7.0; 600 μM peptide into 30 μM MIK2^ECD
# T1 construct: MIK2^ECD (residues 1–707) and BAK1^ECD (residues 1–220) were amplified by PCR from Col-0 cDNA; 6xHIS (C); made in house; host or cells: High Five insect cells (Bac-to-Bac baculovirus system)
# MIK2^ECD [12] = biological target: T1, MIK2^ECD; test: Surface plasmon resonance (SPR); assay type: binding; settings: CM5 chip with immobilized MIK2^ECD
# [13] = test system: bak1-4 and bak1-5/serk4 mutant seedlings; test: ROS assay (luminol), coreceptor mutants; assay type: in vivo, Arabidopsis thaliana
# Protocol: as §2
# [14] = test system: MPK3, MPK4 and MPK6 phosphorylation, mik2-1 seedlings; test: MAPK assay (α-pERK1/2 immunoblot), mik2-1; assay type: in vivo, Arabidopsis thaliana; set-up: dose or concentration left out as unconfirmed; settings: mik2-1, α-pERK1/2 immunoblot
# MIK2-BAK1 association = test: Co-immunoprecipitation MIK2-BAK1; assay type: cell-based, Arabidopsis thaliana; settings: protoplasts, MIK2-HA and BAK1-FLAG, 15 min, co-IP
# Protocol: For co-IP assays in protoplasts, protoplasts were co-transfected with pHBT-35S::MIK2-HA and pHBT-35S::BAK1-FALG or pHBT-35S::SERK4-FLAG at 50 μg DNA for 500 μL protoplasts at the density of 2 × 10^5/mL for each sample and were incubated for 12 h. After treatment with 1 µM SCOOP peptides for 15 min, samples were collected by centrifugation at 200 × g for 2 min and lysed in 300 μL IP buffer (20 mM Tris-HCl, pH 7.5, 100 mM NaCl, 1 mM EDTA, 2 mM DTT, 10% [v/v] Glycerol, 0.5% [v/v] Triton X-100 and protease inhibitor cocktail from Sigma) by vortexing. After centrifugation at 10,000 × g for 10 min at 4 °C, 30 μL of supernatant was collected for input controls. The remaining supernatant was pre-incubated with protein-G-agarose beads at 4 °C for 1 h with gentle shaking at […] on a rocker. IP was carried out with α-FLAG agarose for 3 h at 4 °C. Beads were collected by 500 × g centrifugation for 2 min and washed three times with washing buffer (20 mM Tris-HCl, pH 7.5, 100 mM NaCl, 1 mM EDTA, 0.1% [v/v] Triton X-100) and once with 50 mM Tris-HCl, pH 7.5. Immunoprecipitated proteins and input proteins were analyzed by immunoblotting with α-HA (1:3000; Roche, Cat # 12013819001) or α-FLAG antibodies (1:3000; Sigma-Aldrich, Cat # A8592).
# For co-IP assays in transgenic seedlings, leaves of 4-week-old pMIK2::MIK2-GFP transgenic plants were hand-inoculated with 1 μM SCOOP10^B or SCOOP12 and were treated for 30 min, followed by total protein isolation with extraction buffer (50 mM Tris-HCl, pH 7.5, 150 mM NaCl, 1% [v/v] NP-40 and 1:200 protease inhibitor cocktail from Sigma). Co-IP was carried out the same as for co-IP with protoplasts except that GFP-Trap agarose beads (Chromotek) were used instead. Immunoprecipitated proteins and input proteins were analyzed by immunoblotting with α-GFP (1:3500; Roche, Cat # 11814460001) or α-BAK1 antibodies (1:2000)[64].
# mik2 mutant seedlings = test: ROS assay (luminol), mik2 mutants; assay type: in vivo, Arabidopsis thaliana; settings: mik2 mutants, 100 nM SCOOPs or 1 µM FocSCOOPL
# Protocol: as §2
# rbohD mutant seedlings = test: ROS assay (luminol), rbohD; assay type: in vivo, Arabidopsis thaliana
# Protocol: as §2
# [15] = test system: bik1/pbl1 mutant seedlings; test: ROS assay (luminol), bik1/pbl1; assay type: in vivo, Arabidopsis thaliana; settings: bik1/pbl1, 100 nM SCOOP12 or 1 µM FocSCOOPL
# Protocol: as §2
# T1 sequence (Q8VZG8 44-707): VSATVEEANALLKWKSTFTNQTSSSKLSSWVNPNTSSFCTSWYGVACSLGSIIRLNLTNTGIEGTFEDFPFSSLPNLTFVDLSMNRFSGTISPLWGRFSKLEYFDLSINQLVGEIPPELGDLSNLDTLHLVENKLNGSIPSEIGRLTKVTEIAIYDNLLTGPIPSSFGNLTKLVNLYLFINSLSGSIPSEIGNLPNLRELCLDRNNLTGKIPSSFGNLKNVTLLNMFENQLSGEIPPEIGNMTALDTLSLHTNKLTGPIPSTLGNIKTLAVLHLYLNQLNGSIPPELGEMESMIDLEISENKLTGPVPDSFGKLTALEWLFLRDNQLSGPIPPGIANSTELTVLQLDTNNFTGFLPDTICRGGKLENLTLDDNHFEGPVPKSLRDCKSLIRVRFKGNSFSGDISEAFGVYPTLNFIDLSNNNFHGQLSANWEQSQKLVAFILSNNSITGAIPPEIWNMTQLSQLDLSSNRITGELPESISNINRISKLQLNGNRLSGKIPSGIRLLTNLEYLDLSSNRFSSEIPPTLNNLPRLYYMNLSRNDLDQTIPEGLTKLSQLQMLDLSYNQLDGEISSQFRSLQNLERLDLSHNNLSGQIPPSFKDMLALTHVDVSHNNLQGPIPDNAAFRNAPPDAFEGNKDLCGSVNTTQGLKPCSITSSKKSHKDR
substance,measurement,setting,value
"TAMRA-MGSGASGPVRSSQSSQAGGR [TAMRA-SCOOP12, red fluorescent tetramethylrhodamine (TAMRA)-labeled SCOOP12 peptides at its N-terminus]",red fluorescent labelling of root tips and leaf protoplasts,[1],not in mik2-1
same,bioactivity of labelled peptide: root growth inhibition vs SCOOP12,"[2]; Supplementary Fig. 5a, b, MIK2-dependent",slightly lesser extent than SCOOP12
same,red fluorescent labelling of root tips and leaf protoplasts,[3],Red fluorescent signals were detected
same,MAPK activation by labelled peptide vs SCOOP12,"[4]; Supplementary Fig. 5c, MIK2-dependent",slightly lesser extent than SCOOP12
"RPPTAPIYLPPSKSRKGKGP [SCOOP13, synthesized SCOOP peptide corresponding to the SxS motif]",Root length (Fig. 3e),[5]; mik2-1,22.796 and 23.072 and 22.084 and 23.813 and 22.472 and 23.316 and 25.007 and 26.178 and 24.196 and 22.194
same,Root length (Fig. 3e),[5]; mik2-2,23.916 and 28.782 and 22.331 and 28.855 and 26.162 and 23.502 and 23.674 and 22.828 and 26.36 and 25.263 and 22.35
same,"ROS production, total luminescence (Fig. 2h)",Arabidopsis WT seedlings; repeat 1,1290342
same,"ROS production, total luminescence (Fig. 2h)",Arabidopsis WT seedlings; repeat 2,1525381
same,"ROS production, total luminescence (Fig. 2h)",Arabidopsis WT seedlings; repeat 3,622461
same,"ROS production, SCOOP13 and 14 relative to other SCOOPs, and Ca^2+ bursts","p35S::Aequorin seedlings; Ca^2+ and ROS bursts, 100 nM",relatively weak activities for Ca^2+ and ROS bursts
same,MAPK activation in bak1-4,[6]; bak1-4,reduced in bak1-4
same,MAPK activation in bak1-5/serk4,[6]; bak1-5/serk4,substantially blocked in bak1-5/serk4
same,CYP81F2 expression (Fig. 3i),"[7]; mik2-1, repeat 1",0.33
same,CYP81F2 expression (Fig. 3i),"[7]; mik2-1, repeat 2",0.51
same,CYP81F2 expression (Fig. 3i),"[7]; mik2-1, repeat 3",2.20
same,CYP81F2 expression (Fig. 3i),"[7]; mik2-1, repeat 4",5.48
same,CYP81F2 expression (Fig. 3i),"[7]; mik2-2, repeat 1",3.17
same,CYP81F2 expression (Fig. 3i),"[7]; mik2-2, repeat 2",4.70
same,CYP81F2 expression (Fig. 3i),"[7]; mik2-2, repeat 3",4.82
same,CYP81F2 expression (Fig. 3i),"[7]; mik2-2, repeat 4",7.05
same,"WRKY30, WRKY33 and CYP81F2 expression","[7]; mik2 mutants, 1 µM, 1 h, RT-qPCR",abolished in mik2 mutants
same,root growth inhibition,[2]; in vivo,"inhibited root growth to various degrees, with SCOOP10^B and 13 being the most active; also recorded: potent in inhibiting root growth"
same,root browning,"[8]; WT seedlings, prolonged treatment",led to brown roots
same,root meristem distortion,"[8]; WT, 5-day-old seedlings, 1 µM, 48 h, PI staining",distorted root meristems
same,"WRKY30, WRKY33 and CYP81F2 expression","[9]; 1 µM, 1 h, RT-qPCR",upregulation
same,CYP81F2 expression (Fig. 3i),[9]; repeat 1,41.34
same,CYP81F2 expression (Fig. 3i),[9]; repeat 2,47.71
same,CYP81F2 expression (Fig. 3i),[9]; repeat 3,93.81
same,CYP81F2 expression (Fig. 3i),[9]; repeat 4,121.82
same,MYB51 promoter activity in roots,[10],induced the promoter activities of MYB51
same,MAPK activation in shoots and roots,[4]; Supplementary Fig. 3i,triggered the MAPK activation in both shoots and roots
"MGSGASGPVRSAQASQAGGR [SCOOP12SS/AA, Alanine substitutions on two conserved serine residues in the SxS motif of SCOOP12]",root growth inhibition of SCOOP12^SS/AA,"[2]; Supplementary Fig. 5d, e",abolished its activities to inhibit root growth through MIK2
same,MIK2^ECD-BAK1^ECD dimerization,MIK2^ECD-BAK1^ECD,unable to induce the dimerization between MIK2^ECD and BAK1^ECD
same,"binding to MIK2^ECD, ITC",MIK2^ECD [11],No binding was detected
same,"binding to MIK2^ECD, SPR",MIK2^ECD [12],nearly no binding
"MAQSWLKEESSSSHSERAGGR [FocSCOOPL, SCOOPL peptide from F. oxysporum f. sp. conglutinans strain Fo5176]",ROS production in bak1-4,"[13]; bak1-4, 100 nM SCOOP12","blocked in mik2 (h), and in bak1-4"
same,ROS production in bak1-5/serk4,"[13]; bak1-5/serk4, 100 nM SCOOP12 or 1 µM FocSCOOPL",compromised in the bak1-5/serk4
same,concentration inducing cytosolic Ca^2+ increase,p35S::Aequorin seedlings; in vivo,100 nM
same,cytosolic Ca^2+ increase,p35S::Aequorin seedlings; in vivo,triggers the cytosolic Ca^2+ increase
same,MAPK activation in mik2,[14],blocked in mik2-1
same,MIK2-BAK1 association in protoplasts,MIK2-BAK1 association,induces MIK2-BAK1 association
same,ROS production in mik2,mik2 mutant seedlings,blocked in mik2
same,ROS production in rbohD,rbohD mutant seedlings,"compromised in the bak1-5/serk4, bik1/pbl1, and rbohD mutants"
same,ROS production in bik1/pbl1,[15],"compromised in the bak1-5/serk4, bik1/pbl1, and rbohD mutants"
